In patent US20110294778A1, “HEPATITIS C INHIBITOR COMPOUNDS” (priority 2009, published 2011):

What was measured:
[1] = test system: HCV genotype 1a (strain H77) subgenomic replicon with NS3 resistance mutation R155K in Huh-7 cells; assay: HCV replicon RNA replication assay (NS3 protease variants), genotype 1a R155K; format: cell-based; conditions: Hepatitis C virus, Huh-7, 72 h, read-out: R155K 1a EC50 (nM)
[2] = test system: HCV genotype 1b (Con-1) subgenomic replicon with NS3 resistance mutation D168V in Huh-7 cells; assay: HCV replicon RNA replication assay (NS3 protease variants), genotype 1b D168V; format: cell-based; conditions: Hepatitis C virus, Huh-7, 72 h, read-out: D168V 1b EC50 (nM)

Structure (SMILES) | EC50 [1] [nM] | EC50 [2] [nM]
Cc1c(O)ccc2c(O[C@@H]3C[C@H]4C(=O)N[C@]5(C(=O)NS(=O)(=O)C6(C)CC6)C[C@H]5/C=C\CCCCC[C@H](NC(=O)N(C)C)C(=O)N4C3)cc(OC(C)C)nc12 [Compound 2022, (2R,6S,12Z,13aS,14aR,16aS)-6-[(dimethylcarbamoyl)amino]-2-{[7-hydroxy-8-methyl-2-(propan-2-yloxy)quinolin-4-yl]oxy}-N-[(1-methylcyclopropyl)sulfonyl]-5,16-dioxo-1,2,3,6,7,8,9,10,11,13a,14,15,16,16a-tetradecahydrocyclopropa[e]pyrrolo[1,2-a][1,4]diazacyclopentadecine-14a(5H)-carboxamide] | 4.9 | 1.8
CCOc1cc(O[C@@H]2C[C@H]3C(=O)N[C@]4(C(=O)NS(=O)(=O)C5CC5)C[C@H]4/C=C\CCCCC[C@H](NC(=O)c4ccn(C)n4)C(=O)N3C2)c2ccc(OC)c(Br)c2n1 [Compound 1017, (2R,6S,12Z,13aS,14aR,16aS)-2-[(8-bromo-2-ethoxy-7-methoxyquinolin-4-yl)oxy]-N-(cyclopropylsulfonyl)-6-{[(1-methyl-1H-pyrazol-3-yl)carbonyl]amino}-5,16-dioxo-1,2,3,6,7,8,9,10,11,13a,14,15,16,16a-tetradecahydrocyclopropa[e]pyrrolo[1,2-a][1,4]diazacyclopentadecine-14a(5H)-carboxamide] | 9.5 | 1.1
COc1ccc2c(O[C@@H]3C[C@H]4C(=O)N[C@]5(C(=O)NS(=O)(=O)C6CC6)C[C@H]5/C=C\CCCCC[C@H](NC(=O)N5CCC5)C(=O)N4C3)cc(OC(C)C)nc2c1C [Compound 2005, (2R,6S,12Z,13aS,14aR,16aS)-6-[(azetidin-1-ylcarbonyl)amino]-N-(cyclopropylsulfonyl)-2-{[7-methoxy-8-methyl-2-(propan-2-yloxy)quinolin-4-yl]oxy}-5,16-dioxo-1,2,3,6,7,8,9,10,11,13a,14,15,16,16a-tetradecahydrocyclopropa[e]pyrrolo[1,2-a][1,4]diazacyclopentadecine-14a(5H)-carboxamide] | 4.8 | 0.82
Cc1c(F)ccc2c(O[C@@H]3C[C@H]4C(=O)N[C@]5(C(=O)NS(=O)(=O)C6(C)CC6)C[C@H]5/C=C\CCCCC[C@H](NC(=O)N(C)C)C(=O)N4C3)cc(OC(C)C)nc12 [Compound 2018, (2R,6S,12Z,13aS,14aR,16aS)-6-[(dimethylcarbamoyl)amino]-2-{[7-fluoro-8-methyl-2-(propan-2-yloxy)quinolin-4-yl]oxy}-N-[(1-methylcyclopropyl)sulfonyl]-5,16-dioxo-1,2,3,6,7,8,9,10,11,13a,14,15,16,16a-tetradecahydrocyclopropa[e]pyrrolo[1,2-a][1,4]diazacyclopentadecine-14a(5H)-carboxamide] | 5.7 | 1.2
COc1ccc2c(O[C@@H]3C[C@H]4C(=O)N[C@]5(C(=O)NS(=O)(=O)C6(C)CC6)C[C@H]5/C=C\CCCCC[C@H](NC(=O)N5CCC5)C(=O)N4C3)cc(OC3CC3)nc2c1C [Compound 2010, (2R,6S,12Z,13aS,14aR,16aS)-6-[(azetidin-1-ylcarbonyl)amino]-2-{[2-(cyclopropyloxy)-7-methoxy-8-methylquinolin-4-yl]oxy}-N-[(1-methylcyclopropyl)sulfonyl]-5,16-dioxo-1,2,3,6,7,8,9,10,11,13a,14,15,16,16a-tetradecahydrocyclopropa[e]pyrrolo[1,2-a][1,4]diazacyclopentadecine-14a(5H)-carboxamide] | 6.4 | 0.66
COc1ccc2c(O[C@@H]3C[C@H]4C(=O)N[C@]5(C(=O)NS(=O)(=O)C6(C)CC6)C[C@H]5/C=C\CCCCC[C@H](NC(=O)c5ccn(C(F)F)n5)C(=O)N4C3)cc(OC(C)C)nc2c1C [Compound 1018, (2R,6S,12Z,13aS,14aR,16aS)-6-({[1-(difluoromethyl)-1H-pyrazol-3-yl]carbonyl}amino)-2-{[7-methoxy-8-methyl-2-(propan-2-yloxy)quinolin-4-yl]oxy}-N-[(1-methylcyclopropyl)sulfonyl]-5,16-dioxo-1,2,3,6,7,8,9,10,11,13a,14,15,16,16a-tetradecahydrocyclopropa[e]pyrrolo[1,2-a][1,4]diazacyclopentadecine-14a(5H)-carboxamide] | 2.4 | 0.14
COc1ccc2c(O[C@@H]3C[C@H]4C(=O)N[C@]5(C(=O)NS(=O)(=O)C6(C)CC6)C[C@H]5/C=C\CCCCC[C@H](NC(=O)c5cc(C)n(C)n5)C(=O)N4C3)cc(OC(C)C)nc2c1C [Compound 1026, (2R,6S,12Z,13aS,14aR,16aS)-6-{[(1,5-dimethyl-1H-pyrazol-3-yl)carbonyl]amino}-2-{[7-methoxy-8-methyl-2-(propan-2-yloxy)quinolin-4-yl]oxy}-N-[(1-methylcyclopropyl)sulfonyl]-5,16-dioxo-1,2,3,6,7,8,9,10,11,13a,14,15,16,16a-tetradecahydrocyclopropa[e]pyrrolo[1,2-a][1,4]diazacyclopentadecine-14a(5H)-carboxamide] | 3.3 | 0.32
CCOc1cc(O[C@@H]2C[C@H]3C(=O)N[C@]4(C(=O)NS(=O)(=O)C5(C)CC5)C[C@H]4/C=C\CCCCC[C@H](NC(=O)c4ccn(CC(F)(F)F)n4)C(=O)N3C2)c2ccc(OC)c(C)c2n1 [Compound 1029, (2R,6S,12Z,13aS,14aR,16aS)-2-[(2-ethoxy-7-methoxy-8-methylquinolin-4-yl)oxy]-N-[(1-methylcyclopropyl)sulfonyl]-5,16-dioxo-6-({[1-(2,2,2-trifluoroethyl)-1H-pyrazol-3-yl]carbonyl}amino)-1,2,3,6,7,8,9,10,11,13a,14,15,16,16a-tetradecahydrocyclopropa[e]pyrrolo[1,2-a][1,4]diazacyclopentadecine-14a(5H)-carboxamide] | 6 | 0.37
Cc1ccc(C(=O)N[C@H]2CCCCC/C=C\[C@@H]3C[C@@]3(C(=O)NS(=O)(=O)C3(C)CC3)NC(=O)[C@@H]3C[C@@H](Oc4cc(OC(C)C)nc5c(C)c(O)ccc45)CN3C2=O)s1 [Compound 1033, (2R,6S,12Z,13aS,14aR,16aS)-2-{[7-hydroxy-8-methyl-2-(propan-2-yloxy)quinolin-4-yl]oxy}-N-[(1-methylcyclopropyl)sulfonyl]-6-{[(5-methylthiophen-2-yl)carbonyl]amino}-5,16-dioxo-1,2,3,6,7,8,9,10,11,13a,14,15,16,16a-tetradecahydrocyclopropa[e]pyrrolo[1,2-a][1,4]diazacyclopentadecine-14a(5H)-carboxamide] | 0.77 | 0.58
CCOc1cc(O[C@@H]2C[C@H]3C(=O)N[C@]4(C(=O)NS(=O)(=O)C5CC5)C[C@H]4/C=C\CCCCC[C@H](NC(=O)c4ccc(C)s4)C(=O)N3C2)c2ccc(OC)c(Br)c2n1 [Compound 1025, (2R,6S,12Z,13aS,14aR,16aS)-2-[(8-bromo-2-ethoxy-7-methoxyquinolin-4-yl)oxy]-N-(cyclopropylsulfonyl)-6-{[(5-methylthiophen-2-yl)carbonyl]amino}-5,16-dioxo-1,2,3,6,7,8,9,10,11,13a,14,15,16,16a-tetradecahydrocyclopropa[e]pyrrolo[1,2-a][1,4]diazacyclopentadecine-14a(5H)-carboxamide] | 4.1 | 0.32
COc1ccc2c(O[C@@H]3C[C@H]4C(=O)N[C@]5(C(=O)NS(=O)(=O)C6(C)CC6)C[C@H]5/C=C\CCCCC[C@H](NC(=O)c5ccn(C)n5)C(=O)N4C3)cc(OC3CC3)nc2c1C [Compound 1028, (2R,6S,12Z,13aS,14aR,16aS)-2-{[2-(cyclopropyloxy)-7-methoxy-8-methylquinolin-4-yl]oxy}-N-[(1-methylcyclopropyl)sulfonyl]-6-{[(1-methyl-1H-pyrazol-3-yl)carbonyl]amino}-5,16-dioxo-1,2,3,6,7,8,9,10,11,13a,14,15,16,16a-tetradecahydrocyclopropa[e]pyrrolo[1,2-a][1,4]diazacyclopentadecine-14a(5H)-carboxamide] | 3.7 | 0.37
COc1ccc2c(O[C@@H]3C[C@H]4C(=O)N[C@]5(C(=O)NS(=O)(=O)C6(C)CC6)C[C@H]5/C=C\CCCCC[C@H](NC(=O)N5CC(C)(OC)C5)C(=O)N4C3)cc(OC(C)C)nc2c1C [Compound 2009, (2R,6S,12Z,13aS,14aR,16aS)-6-{[(3-methoxy-3-methylazetidin-1-yl)carbonyl]amino}-2-{[7-methoxy-8-methyl-2-(propan-2-yloxy)quinolin-4-yl]oxy}-N-[(1-methylcyclopropyl)sulfonyl]-5,16-dioxo-1,2,3,6,7,8,9,10,11,13a,14,15,16,16a-tetradecahydrocyclopropa[e]pyrrolo[1,2-a][1,4]diazacyclopentadecine-14a(5H)-carboxamide] | 6.8 | 2.9
CCOc1ccc2c(O[C@@H]3C[C@H]4C(=O)N[C@]5(C(=O)NS(=O)(=O)C6(C)CC6)C[C@H]5/C=C\CCCCC[C@H](NC(=O)c5ccn(C)n5)C(=O)N4C3)cc(OC(C)C)nc2c1Cl [Compound 1001, (2R,6S,12Z,13aS,14aR,16aS)-2-{[8-chloro-7-ethoxy-2-(propan-2-yloxy)quinolin-4-yl]oxy}-N-[(1-methylcyclopropyl)sulfonyl]-6-{[(1-methyl-1H-pyrazol-3-yl)carbonyl]amino}-5,16-dioxo-1,2,3,6,7,8,9,10,11,13a,14,15,16,16a-tetradecahydrocyclopropa[e]pyrrolo[1,2-a][1,4]diazacyclopentadecine-14a(5H)-carboxamide] | 2.6 | 0.33
COc1ccc2c(O[C@@H]3C[C@H]4C(=O)N[C@]5(C(=O)NS(=O)(=O)C6CC6)C[C@H]5/C=C\CCCCC[C@H](NC(=O)N5CC(F)C5)C(=O)N4C3)cc(OC(C)C)nc2c1C [Compound 2007, (2R,6S,12Z,13aS,14aR,16aS)-N-(cyclopropylsulfonyl)-6-{[(3-fluoroazetidin-1-yl)carbonyl]amino}-2-{[7-methoxy-8-methyl-2-(propan-2-yloxy)quinolin-4-yl]oxy}-5,16-dioxo-1,2,3,6,7,8,9,10,11,13a,14,15,16,16a-tetradecahydrocyclopropa[e]pyrrolo[1,2-a][1,4]diazacyclopentadecine-14a(5H)-carboxamide] | 9 | 0.71
